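Compound exposure: 48 hours, 5 concentrations, 96-well plates. GI50: concentration for 50% inhibition of growth. The concentration for full growth arrest is given as TGI.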
Columns and labels:
Assay in all cases: NCI-60 cell line screen, 48 h
EKVX NSCLC = system: EKVX NSCLC
HOP-62 NSCLC = system: HOP-62 NSCLC
UACC-257 melanoma = system: UACC-257 melanoma
TK-10 renal = system: TK-10 renal
NCI-H226 lung = system: NCI-H226 lung
UO-31 renal = system: UO-31 renal
K-562 leukemia = system: K-562 leukemia
PC-3 prostate = system: PC-3 prostate
MDA-MB-231 breast = system: MDA-MB-231 breast
OVCAR-3 ovarian = system: OVCAR-3 ovarian

| Compound | GI50 (EKVX NSCLC) [nM] | TGI (EKVX NSCLC) [µM] | GI50 (HOP-62 NSCLC) [nM] | GI50 (UACC-257 melanoma) [nM] | TGI (UACC-257 melanoma) [µM] | TGI (TK-10 renal) [µM] | TGI (NCI-H226 lung) [µM] | TGI (UO-31 renal) [µM] | GI50 (K-562 leukemia) [nM] | TGI (K-562 leukemia) [µM] | TGI (PC-3 prostate) [µM] | TGI (HOP-62 NSCLC) [µM] | TGI (MDA-MB-231 breast) [µM] | GI50 (PC-3 prostate) [nM] | GI50 (OVCAR-3 ovarian) [nM] | TGI (OVCAR-3 ovarian) [µM] | GI50 (TK-10 renal) [nM] | GI50 (NCI-H226 lung) [nM] | GI50 (MDA-MB-231 breast) [nM] |
| --- | --- | --- | --- | --- | --- | --- | --- | --- | --- | --- | --- | --- | --- | --- | --- | --- | --- | --- | --- |
| COc1cccc2c1C(=O)c1c(O)c3c(c(O)c1C2=O)C[C@@](O)(C(=O)CO)CC3OC1CC(NCCCCC(OC(C)=O)OC(C)=O)C(O)C(C)O1 (some centres not stated) | 3.68 | 0.0143 | 2.48 | 2.86 | 0.00798 | > 1 | 0.00568 | 0.0043 | 0.522 | 0.00466 | – | – | – | – | – | – | – | – | – |
| C/C(=N\Nc1nc2ccccc2n1C)c1ccncn1 | – | > 47.7 | – | – | > 100 | > 100 | > 45.7 | 22.9 | – | > 100 | > 100 | > 100 | > 76.6 | – | – | – | – | – | – |
| COc1ccc(Nc2ccnc3cc(Cl)ccc23)cc1CN(CCCl)CCCl | 1900 | > 21.5 | 1370 | 1980 | 5.96 | > 20.7 | 4.17 | – | 1530 | > 22.7 | > 100 | 4.01 | 15.9 | 2050 | 1950 | 6.04 | 2020 | 1630 | 2450 |
| C/C(=N/OCCC(=O)O)C1CC1 | – | > 100 | – | – | – | > 100 | > 100 | > 100 | – | > 100 | – | > 100 | – | – | – | > 100 | – | – | – |
| CCC(C)Cn1c(C)nc2c1C(=O)c1ccccc1C2=O (configuration not stated) | – | > 100 | – | – | 62.3 | > 100 | > 100 | 87.8 | – | > 100 | – | > 100 | – | – | – | 66.7 | – | – | – |
